From patent EP4635500A1, “THERAPEUTIC AGENT FOR BACTERIAL INFECTION” (Sumitomo Pharma Co., Ltd., priority 2022, dated 2024)
Like-named read-outs stand apart in the source and are kept apart here.

Experiments:
Enterobacterales = assay: MIC, broth microdilution, CDC/FDA Antibiotic Resistance Isolate Bank (Example 7, Tables 8, 11, 12); assay type: cell-based; details: for MIC50: carbapenemase-producing Enterobacterales, read-out: MIC50
A. baumannii = assay: MIC, broth microdilution, CDC/FDA Antibiotic Resistance Isolate Bank (Example 7, Tables 9, 13, 14); assay type: cell-based, Acinetobacter baumannii; details: for MIC: read-out: MIC
[1] = MIC distribution, metallo-β-lactamase-producing A. baumannii, inhibitor µg/mL in parentheses

CC(C)(O/N=C(\C(=O)N[C@@H]1C(=O)N2C(C(=O)[O-])=C(C[N+]3(CCNC(=O)c4ccc(O)c(O)c4Cl)CCCC3)CS[C@H]12)c1csc(N)n1)C(=O)O [Cefiderocol, cefiderocol]
< 0.06 µg/mL: MIC (Enterobacterales; Klebsiella pneumoniae, KUB No. 5639, AR Bank # 142, read-out: MIC) | MIC (Enterobacterales; Proteus mirabilis, KUB No. 5653, AR Bank # 156, read-out: MIC) | MIC (Enterobacterales; Serratia marcescens, KUB No. 5620, AR Bank # 123, read-out: MIC)
≤0.06 to 16 µg/mL: MICrange (A. baumannii; 55 isolates of A. baumannii)
16 µg/mL: MIC (A. baumannii; Acinetobacter baumannii, A. baumannii KUB No. 5580, AR Bank #83, OXA-23, OXA-69, NDM-1)
50.1 µg/mL: MIC (Enterobacterales; Serratia marcescens, KUB No. 5628, AR Bank # 131, read-out: MIC)
4 µg/mL: MIC (A. baumannii; Acinetobacter baumannii, A. baumannii KUB No. 5575, AR Bank #78, OXA-71) | MIC (A. baumannii; Acinetobacter baumannii, A. baumannii KUB No. 5710, AR Bank #277, OXA-24, OXA-65) | MIC (A. baumannii; Acinetobacter baumannii, KUB No. 5735, AR Bank #302) | MIC (A. baumannii; Acinetobacter baumannii, KUB No. 5742, AR Bank #309) | MIC90 (A. baumannii; Acinetobacter baumannii, 55 isolates of A. baumannii, read-out: MIC90)
1 µg/mL: MIC (Enterobacterales; Klebsiella pneumoniae, KUB No. 5632, AR Bank # 135, read-out: MIC) | MIC (Enterobacterales; Klebsiella pneumoniae, KUB No. 5635, AR Bank # 138, read-out: MIC) | MIC (Enterobacterales; Klebsiella pneumoniae, KUB No. 5640, AR Bank # 143, read-out: MIC) | MIC (Enterobacterales; Klebsiella pneumoniae, KUB No. 5650, AR Bank # 153, read-out: MIC) | MIC (Enterobacterales; Klebsiella pneumoniae, KUB No. 5757, AR Bank # 361, read-out: MIC) | MIC (Enterobacterales; Klebsiella pneumoniae, KUB No. 5772, AR Bank # 376, read-out: MIC) | MIC (Enterobacterales; Klebsiella pneumoniae, Klebsiella pneumoniae KUB No. 5828, AR Bank #523, read-out: MIC) | MIC (Enterobacterales; Salmonella enterica, Salmonella Senftenberg, KUB No. 5624, AR Bank # 127, read-out: MIC) | MIC50 (Enterobacterales; Metallo-β-lactamase (N = 47)) | MIC (A. baumannii; Acinetobacter baumannii, A. baumannii KUB No. 5718, AR Bank #285, OXA-24, OXA-65) | MIC (A. baumannii; Acinetobacter baumannii, KUB No. 5734, AR Bank #301) | MIC (A. baumannii; Acinetobacter baumannii, KUB No. 5739, AR Bank #306) | MIC (A. baumannii; Acinetobacter baumannii, KUB No. 5746, AR Bank #313)
8 µg/mL: MIC (A. baumannii; Acinetobacter baumannii, A. baumannii KUB No. 5709, AR Bank #276, no carbapenemase genes (-)) | MIC (A. baumannii; Acinetobacter baumannii, KUB No. 5732, AR Bank #299)
2: Number of isolates at MIC 2 µg/mL (A. baumannii; [1])
1: Number of isolates at MIC 16 µg/mL (A. baumannii; [1])
0.12 µg/mL: MIC (Enterobacterales; Klebsiella pneumoniae, KUB No. 5636, AR Bank # 139, read-out: MIC) | MIC (Enterobacterales; Klebsiella pneumoniae, KUB No. 5637, AR Bank # 140, read-out: MIC) | MIC (Enterobacterales; Serratia marcescens, KUB No. 5618, AR Bank # 121, read-out: MIC) | MIC (Enterobacterales; Serratia marcescens, KUB No. 5619, AR Bank # 122, read-out: MIC) | MIC (Enterobacterales; Serratia marcescens, KUB No. 5627, AR Bank # 130, read-out: MIC) | MIC (A. baumannii; Acinetobacter baumannii, A. baumannii KUB No. 5599, AR Bank #102, OXA-66) | MIC (A. baumannii; Acinetobacter baumannii, A. baumannii KUB No. 5706, AR Bank #273, OXA-23, OXA-66) | MIC (A. baumannii; Acinetobacter baumannii, A. baumannii KUB No. 5707, AR Bank #274, OXA-66, OXA-72) | MIC (A. baumannii; Acinetobacter baumannii, A. baumannii KUB No. 5714, AR Bank #281, OXA-82) | MIC (A. baumannii; Acinetobacter baumannii, KUB No. 5722, AR Bank #259) | MIC (A. baumannii; Acinetobacter baumannii, KUB No. 5730, AR Bank #297) | MIC (A. baumannii; Acinetobacter baumannii, KUB No. 5736, AR Bank #303) | MIC (A. baumannii; Acinetobacter baumannii, KUB No. 5740, AR Bank #307)
0.5 µg/mL: MIC (Enterobacterales; Klebsiella pneumoniae, KUB No. 5645, AR Bank # 148, read-out: MIC) | MIC (Enterobacterales; Klebsiella pneumoniae, KUB No. 5655, AR Bank # 158, read-out: MIC) | MIC (Enterobacterales; Klebsiella pneumoniae, Klebsiella pneumoniae KUB No. 5784, AR Bank #438, read-out: MIC) | MIC (Enterobacterales; Klebsiella pneumoniae, Klebsiella pneumoniae KUB No. 5810, AR Bank #505, read-out: MIC) | MIC (Enterobacterales; Klebsiella pneumoniae, Klebsiella pneumoniae KUB No. 5829, AR Bank #524, read-out: MIC) | MIC (Enterobacterales; Proteus mirabilis, KUB No. 5656, AR Bank # 159, read-out: MIC) | MIC (Enterobacterales; Serratia marcescens, Serratia marcescens KUB No. 5826, AR Bank #521, read-out: MIC) | MIC (A. baumannii; Acinetobacter baumannii, A. baumannii KUB No. 5598, AR Bank #101, OXA-24, OXA-65) | MIC (A. baumannii; Acinetobacter baumannii, A. baumannii KUB No. 5708, AR Bank #275, OXA-23, OXA-66) | MIC (A. baumannii; Acinetobacter baumannii, A. baumannii KUB No. 5711, AR Bank #278, OXA-23, OXA-66) | MIC (A. baumannii; Acinetobacter baumannii, A. baumannii KUB No. 5715, AR Bank #282, OXA-23, OXA-66) | MIC (A. baumannii; Acinetobacter baumannii, KUB No. 5719, AR Bank #286) | MIC (A. baumannii; Acinetobacter baumannii, KUB No. 5720, AR Bank #287) | MIC (A. baumannii; Acinetobacter baumannii, KUB No. 5723, AR Bank #290) | MIC (A. baumannii; Acinetobacter baumannii, KUB No. 5724, AR Bank #291) | MIC (A. baumannii; Acinetobacter baumannii, KUB No. 5725, AR Bank #292) | MIC (A. baumannii; Acinetobacter baumannii, KUB No. 5726, AR Bank #293) | MIC (A. baumannii; Acinetobacter baumannii, KUB No. 5727, AR Bank #294) | MIC (A. baumannii; Acinetobacter baumannii, KUB No. 5728, AR Bank #295) | MIC (A. baumannii; Acinetobacter baumannii, KUB No. 5729, AR Bank #296) | MIC (A. baumannii; Acinetobacter baumannii, KUB No. 5731, AR Bank #298) | MIC (A. baumannii; Acinetobacter baumannii, KUB No. 5744, AR Bank #311) | MIC50 (A. baumannii; Acinetobacter baumannii, 55 isolates of A. baumannii, read-out: MIC50)
0.25 µg/mL: MIC (Enterobacterales; Klebsiella pneumoniae, KUB No. 5642, AR Bank # 145, read-out: MIC) | MIC (Enterobacterales; Klebsiella pneumoniae, KUB No. 5643, AR Bank # 146, read-out: MIC) | MIC (Enterobacterales; Klebsiella pneumoniae, KUB No. 5649, AR Bank # 152, read-out: MIC) | MIC (Enterobacterales; Klebsiella pneumoniae, KUB No. 5657, AR Bank # 160, read-out: MIC) | MIC (Enterobacterales; Klebsiella pneumoniae, KUB No. 5759, AR Bank # 363, read-out: MIC) | MIC (Enterobacterales; Klebsiella pneumoniae, Klebsiella pneumoniae KUB No. 5797, AR Bank #453, read-out: MIC) | MIC (Enterobacterales; Klebsiella pneumoniae, Klebsiella pneumoniae KUB No. 5809, AR Bank #504, read-out: MIC) | MIC (Enterobacterales; Proteus mirabilis, KUB No. 5556, AR Bank# 59, read-out: MIC) | MIC (Enterobacterales; Serratia marcescens, KUB No. 5596, AR Bank # 99, read-out: MIC) | MIC50 (Enterobacterales; Serine carbapenemase (N=61)) | MIC (A. baumannii; Acinetobacter baumannii, A. baumannii KUB No. 5712, AR Bank #279, OXA-23, OXA-66) | MIC (A. baumannii; Acinetobacter baumannii, A. baumannii KUB No. 5713, AR Bank #280, OXA-66) | MIC (A. baumannii; Acinetobacter baumannii, A. baumannii KUB No. 5716, AR Bank #283, OXA-23, OXA-66) | MIC (A. baumannii; Acinetobacter baumannii, A. baumannii KUB No. 5717, AR Bank #284, OXA-24, OXA-65) | MIC (A. baumannii; Acinetobacter baumannii, KUB No. 5721, AR Bank #288) | MIC (A. baumannii; Acinetobacter baumannii, KUB No. 5733, AR Bank #300) | MIC (A. baumannii; Acinetobacter baumannii, KUB No. 5738, AR Bank #305) | MIC (A. baumannii; Acinetobacter baumannii, KUB No. 5741, AR Bank #308) | MIC (A. baumannii; Acinetobacter baumannii, KUB No. 5745, AR Bank #312)
≤ 0.06 µg/mL: MIC (Enterobacterales; Klebsiella pneumoniae, KUB No. 5638, AR Bank # 141, read-out: MIC) | MIC (Enterobacterales; Kluyvera ascorbata, KUB No. 5641, AR Bank # 144, read-out: MIC) | MIC (Enterobacterales; Morganella morganii, KUB No. 5630, AR Bank # 133, read-out: MIC) | MIC (Enterobacterales; Proteus mirabilis, KUB No. 5652, AR Bank # 155, read-out: MIC) | MIC (Enterobacterales; Proteus mirabilis, KUB No. 5773, AR Bank # 377, read-out: MIC) | MIC (Enterobacterales; Providencia rettgeri, KUB No. 5579, AR Bank # 82, read-out: MIC) | MIC (Enterobacterales; Serratia marcescens, KUB No. 5588, AR Bank # 91, read-out: MIC) | MIC (A. baumannii; Acinetobacter baumannii, A. baumannii KUB No. 5567, AR Bank #70, OXA-58, OXA-100) | MIC (A. baumannii; Acinetobacter baumannii, KUB No. 5737, AR Bank #304)
2 µg/mL: MIC (Enterobacterales; Klebsiella pneumoniae, KUB No. 5760, AR Bank # 364, read-out: MIC) | MIC (Enterobacterales; Klebsiella pneumoniae, Klebsiella pneumoniae KUB No. 5811, AR Bank #506, read-out: MIC) | MIC (Enterobacterales; Klebsiella pneumoniae, Klebsiella pneumoniae KUB No. 5812, AR Bank #507, read-out: MIC) | MIC (Enterobacterales; Klebsiella pneumoniae, Klebsiella pneumoniae KUB No. 5827, AR Bank #522, read-out: MIC) | MIC (Enterobacterales; Klebsiella pneumoniae, Klebsiella pneumoniae KUB No. 5830, AR Bank #525, read-out: MIC) | MIC (Enterobacterales; Proteus mirabilis, KUB No. 5775, AR Bank # 379, read-out: MIC) | MIC (Enterobacterales; Serratia marcescens, Serratia marcescens KUB No. 5822, AR Bank #517, read-out: MIC) | MIC (A. baumannii; Acinetobacter baumannii, A. baumannii KUB No. 5585, AR Bank #88, OXA-64, NDM-1) | MIC (A. baumannii; Acinetobacter baumannii, KUB No. 5743, AR Bank #310) | MIC80 (A. baumannii; Acinetobacter baumannii, 55 isolates of A. baumannii, read-out: MIC80)
≤0.0 µg/mL: MIC (Enterobacterales; Serratia marcescens, KUB No. 5621, AR Bank # 124)
